How the values were obtained:
[1] = biological target: T1, PDIA1 (protein disulphide isomerase A1) (Homo sapiens, UniProt P07237); assay: insulin reduction turbidimetric assay with recombinant enzyme; assay type: biochemical; conditions: read-out: Enzymatic Activity, % of Initial / PDIA1
T1 construct: gene P4HB; recombinant, full length, 18-508aa, His-tag, E. coli

[2] = biological target: T2, PDIA3 (Homo sapiens, UniProt P30101); assay: as above; assay type: biochemical; conditions: read-out: Enzymatic Activity, % of Initial / PDIA3
T2 construct: recombinant, 25-505aa, His-tag, E. coli
T2 sequence (P30101 25-505): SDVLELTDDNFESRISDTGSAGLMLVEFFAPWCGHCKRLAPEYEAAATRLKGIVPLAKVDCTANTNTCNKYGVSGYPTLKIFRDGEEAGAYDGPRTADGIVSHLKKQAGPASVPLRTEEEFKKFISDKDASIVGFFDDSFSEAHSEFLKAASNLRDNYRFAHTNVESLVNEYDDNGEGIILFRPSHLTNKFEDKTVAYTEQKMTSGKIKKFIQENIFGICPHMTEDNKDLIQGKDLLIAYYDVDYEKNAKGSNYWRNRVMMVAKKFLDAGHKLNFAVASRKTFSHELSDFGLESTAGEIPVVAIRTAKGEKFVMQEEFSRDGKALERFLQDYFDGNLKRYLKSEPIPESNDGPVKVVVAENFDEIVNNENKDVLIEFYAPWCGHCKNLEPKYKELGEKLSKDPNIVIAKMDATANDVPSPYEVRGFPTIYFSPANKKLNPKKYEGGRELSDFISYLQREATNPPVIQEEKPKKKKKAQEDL

T1 sequence (P07237 18-508): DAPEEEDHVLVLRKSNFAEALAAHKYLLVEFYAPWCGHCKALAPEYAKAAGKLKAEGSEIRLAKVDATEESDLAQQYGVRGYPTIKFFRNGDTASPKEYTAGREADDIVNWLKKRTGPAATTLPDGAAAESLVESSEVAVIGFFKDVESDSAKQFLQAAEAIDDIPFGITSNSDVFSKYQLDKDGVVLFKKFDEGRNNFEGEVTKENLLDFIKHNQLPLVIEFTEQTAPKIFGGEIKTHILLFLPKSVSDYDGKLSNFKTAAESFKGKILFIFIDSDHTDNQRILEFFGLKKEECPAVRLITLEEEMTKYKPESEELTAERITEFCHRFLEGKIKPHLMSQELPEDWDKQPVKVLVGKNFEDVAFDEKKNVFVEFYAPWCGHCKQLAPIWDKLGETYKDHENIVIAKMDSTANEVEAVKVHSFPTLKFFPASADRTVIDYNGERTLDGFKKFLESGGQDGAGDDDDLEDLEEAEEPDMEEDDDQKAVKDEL

## bepristat 2a
[1]
  IC50: 2.1 µM
[2]
  IC50: 127 µM
